Molecular target: T1, human SCD1 (hSCD-1) (Homo sapiens, UniProt O00767)
T1 construct: made in house; host or cells: baculovirus/Sf9 insect cells
T1 sequence (O00767 1-359): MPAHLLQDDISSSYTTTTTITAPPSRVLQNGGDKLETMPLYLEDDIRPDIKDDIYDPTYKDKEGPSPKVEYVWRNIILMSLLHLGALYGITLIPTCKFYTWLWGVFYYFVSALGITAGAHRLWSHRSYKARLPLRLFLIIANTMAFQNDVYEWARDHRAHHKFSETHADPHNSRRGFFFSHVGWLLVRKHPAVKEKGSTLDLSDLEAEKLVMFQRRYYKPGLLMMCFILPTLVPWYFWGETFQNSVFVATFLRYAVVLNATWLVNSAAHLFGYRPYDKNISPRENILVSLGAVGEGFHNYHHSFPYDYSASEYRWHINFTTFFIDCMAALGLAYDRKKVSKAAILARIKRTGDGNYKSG
Experiment: SCD enzyme activity assay, reconstituted human SCD1 (conversion of radiolabeled stearoyl-CoA to oleoyl-CoA)
Type: biochemical
Conditions: human SCD-1
Method: The potency of compounds of formula I against the stearoyl-CoA desaturase was determined by measuring the conversion of radiolabeled stearoyl-CoA to oleoyl-CoA using rat liver microsome or human SCD1 (hSCD-1) following previously published procedures with some modifications (Joshi, et al., J. Lipid Res., 18: 32-36 (1977); Talamo, et al., Anal. Biochem, 29: 300-304 (1969)). Liver microsome was prepared from male Wistar or Sprague Dawley rats on a high carbohydrate diet for 3 days (LabDiet # 5803, Purina). The livers were homogenized (1:10 w/v) in a buffer containing 250 mM sucrose, 1 mM EDTA, 5 mM DTT and 50 mM Tris-HCl (pH 7.5). After a 100,000×g centrifugation for 60 min, the liver microsome pellet was suspended in a buffer containing 100 mM sodium phosphate, 20% glycerol, 2 mM DTT, and stored at −78° C. Human SCD1 desaturase system was reconstituted using human SCD1 from a baculovirus/Sf9 expression system, cytochrome B5 and cytochrome B5 reductase. Typically, test compound in 2 μL DMSO was incubated for 15 min at room temperature with 180 μL of the SCD enzyme in a buffer containing 100 mM Tris-HCl (pH 7.5), ATP (5 mM), Coenzyme-A (0.1 mM), Triton X-100 (0.5 mM) and NADH (2 mM). The reaction was initiated by the addition of 20 μL of [^3H]-stearoyl-CoA (final concentration=2 μM, radioactivity concentration=1 μCi/mL). After 10 min, the reaction mixture (80 μL) was mixed with a calcium chloride/charcoal aqueous suspension (100 μl, charcoal (10% w/v) plus 25 μL CaCl2 (2N). After centrifugation to precipitate the radioactive fatty acid species, tritiated water released from 9,10-[^3H]-stearoyl-CoA by the SCD enzyme was quantified on a scintillation counter.

Row | Structure (SMILES) | IC50
1 | O=C(O)Cn1nnc(-c2cc(N3CCN(C(=O)c4cc(C(F)(F)F)ccc4Cl)CC3)no2)n1 | 24 nM
2 | O=C(O)Cn1nnc(-c2cc(N3CCN(c4cccc(C(F)(F)F)c4)CC3)no2)n1 | 83 nM
3 | O=C(O)Cn1nnc(-c2cc(N3CCN(c4cc(F)ccc4Cl)CC3)no2)n1 | 35 nM
4 | O=C(O)Cn1nnc(-c2cnc(N3CCCN(c4ccccc4C(F)(F)F)CC3)s2)n1 | 30 nM
5 | O=C(O)Cn1nnc(-c2cnc(N3CCCN(c4cc(F)ccc4Cl)CC3)s2)n1 | 29 nM
6 | O=C(O)Cn1nnc(-c2cnc(N3CCN(c4cc(C(F)(F)F)cc(C(F)(F)F)c4)CC3)nc2)n1 | 44 nM
7 | O=C(O)Cn1nnc(-c2cc(N3CCC(C(=O)c4cc(C(F)(F)F)ccc4Cl)CC3)no2)n1 | 22 nM
8 | O=C(O)Cn1nnc(-c2cc(N3CCC(C(=O)c4ccc(F)cc4Cl)CC3)no2)n1 | 50 nM
9 | Cc1ccc(C(F)(F)F)cc1C(=O)C1CCN(c2cc(-c3nnn(CC(=O)O)n3)on2)CC1 | 48 nM
10 | Cc1ccc(F)cc1C(=O)C1CCN(c2cc(-c3nnn(CC(=O)O)n3)on2)CC1 | 20 nM
11 | O=C(O)Cn1nnc(-c2cc(N3CCC(C(=O)c4ccccc4OC(F)(F)F)CC3)no2)n1 | 66 nM
12 | O=C(O)Cn1nnc(-c2cnc(N3CCC(C(=O)c4cc(Cl)ccc4Cl)CC3)nc2)n1 | 58 nM
13 | O=C(O)Cn1nnc(-c2cnc(N3CCC(C(=O)c4cc(F)ccc4Cl)CC3)nc2)n1 | 46 nM
14 | O=C(O)Cn1nnc(-c2cnc(N3CCC(C(=O)c4cc(F)ccc4C(F)(F)F)CC3)nc2)n1 | 27 nM
15 | COc1ccc(OC(F)(F)F)cc1C(=O)C1CCN(c2cc(-c3nnn(CC(=O)O)n3)on2)CC1 | 85 nM
16 | Cc1ccc(Cl)cc1C(=O)C1CCN(c2cc(-c3nnn(CC(=O)O)n3)on2)CC1 | 28 nM
17 | CCCc1ccc(Cl)cc1C(=O)C1CCN(c2cc(-c3nnn(CC(=O)O)n3)on2)CC1 | 23 nM
18 | COc1ccc(Cl)c(C(=O)C2CCN(c3cc(-c4nnn(CC(=O)O)n4)on3)CC2)c1 | 95 nM
19 | Cc1ccc(Cl)c(C(=O)C2CCN(c3cc(-c4nnn(CC(=O)O)n4)on3)CC2)c1 | 79 nM
20 | O=C(O)Cn1nnc(-c2cc(N3CCC(C(=O)c4ccccc4OC(F)F)CC3)no2)n1 | 40 nM
21 | O=C(O)Cn1nnc(-c2cc(N3CCC(C(=O)c4cc(Cl)ccc4C(F)(F)F)CC3)no2)n1 | 32 nM
22 | O=C(O)Cn1nnc(-c2cc(N3CCC(C(=O)c4ccccc4Br)CC3)no2)n1 | 28 nM
23 | O=C(O)Cn1nnc(-c2cc(N3CCC(C(=O)c4cc(Cl)ccc4Cl)CC3)no2)n1 | 31 nM
24 | CCC(C)c1ccc(F)cc1C(=O)C1CCN(c2cc(-c3nnn(CC(=O)O)n3)on2)CC1 (stereo not shown) [drawing 70] | < 20 nM
25 | CCC(C)c1ccc(F)cc1C(=O)C1CCN(c2cc(-c3nnn(CC(=O)O)n3)on2)CC1 (stereo not shown) [drawing 71] | < 20 nM

Results, then the compound that gave them:

Row | IC50 | Structure (SMILES)
26 | < 20 nM | O=C(O)Cn1nnc(-c2cc(N3CCN(C(=O)c4cccc(OC(F)(F)F)c4)CC3)no2)n1
27 | < 20 nM | O=C(O)Cn1nnc(-c2cnc(N3CCC(C(=O)c4ccccc4C(F)(F)F)CC3)s2)n1
28 | < 20 nM | O=C(O)Cn1nnc(-c2cnc(N3CCN(c4cccc(OC(F)(F)F)c4)CC3)s2)n1
29 | < 20 nM | O=C(O)Cn1nnc(-c2cc(N3CCC(C(=O)c4ccccc4C(F)(F)F)CC3)no2)n1
30 | < 20 nM | O=C(O)Cn1nnc(-c2cnc(N3CC=C(c4ccccc4C(F)(F)F)CC3)s2)n1
31 | < 20 nM | CCc1ccc(F)cc1C(=O)C1CCN(c2cc(-c3nnn(CC(=O)O)n3)on2)CC1
32 | < 20 nM | O=C(O)Cn1nnc(-c2cnc(N3CCC(c4cccc(C(F)(F)F)c4)CC3)s2)n1
33 | < 20 nM | O=C(O)Cn1nnc(-c2cnc(N3CCN(c4ccccc4C(F)(F)F)CC3)s2)n1
34 | < 20 nM | O=C(O)Cn1nnc(-c2cnc(N3CCN(c4cc(F)ccc4Cl)CC3)s2)n1
35 | < 20 nM | O=C(O)Cn1nnc(-c2cc(N3CCC(C(=O)c4cc(F)ccc4Cl)CC3)no2)n1
36 | < 20 nM | O=C(O)Cn1nnc(-c2cc(N3CCC(C(=O)c4cc(F)ccc4C(F)(F)F)CC3)no2)n1
37 | < 20 nM | O=C(O)Cn1nnc(-c2cnc(N3CCN(c4cc(C(F)(F)F)ccc4Cl)CC3)s2)n1
38 | < 20 nM | O=C(O)Cn1nnc(-c2cnc(N3CCN(c4cc(Cl)ccc4F)CC3)s2)n1
39 | < 20 nM | O=C(O)Cn1nnc(-c2cnc(N3C[C@@H]4C[C@H]3CN4c3cc(F)ccc3Cl)s2)n1
40 | < 20 nM | O=C(O)Cn1nnc(-c2cnc(N3C[C@@H]4C[C@H]3CN4c3cccc(Cl)c3)s2)n1
41 | < 20 nM | CCC(C)c1ccccc1C(=O)C1CCN(c2cc(-c3nnn(CC(=O)O)n3)on2)CC1 (stereo not shown)
42 | < 20 nM | O=C(O)Cn1nnc(-c2cc(N3CCC(C(=O)c4cc(Cl)ccc4C(F)F)CC3)no2)n1
43 | < 20 nM | CC1(c2ccccc2C(=O)C2CCN(c3cc(-c4nnn(CC(=O)O)n4)on3)CC2)CC1
44 | < 20 nM | CC(C)(F)c1ccccc1C(=O)C1CCN(c2cc(-c3nnn(CC(=O)O)n3)on2)CC1
45 | < 20 nM | CC1(c2ccc(F)cc2C(=O)C2CCN(c3cc(-c4nnn(CC(=O)O)n4)on3)CC2)CC1
46 | < 20 nM | O=C(O)Cn1nnc(-c2cc(N3CCC(C(=O)c4cc(F)ccc4C(F)F)CC3)no2)n1
47 | < 20 nM | O=C(O)Cn1nnc(-c2cc(N3CCC(C(=O)c4cc(C(F)(F)F)ccc4C(F)(F)F)CC3)no2)n1
48 | < 20 nM | O=C(O)Cn1nnc(-c2cnc(N3CCC(C(=O)c4cc(OC(F)(F)F)ccc4Cl)CC3)nc2)n1
49 | < 20 nM | O=C(O)Cn1nnc(-c2cc(N3CCC(C(=O)c4cc(F)ccc4CC4CC4)CC3)no2)n1
50 | < 20 nM | O=C(O)Cn1nnc(-c2cc(N3CCC(C(=O)c4cc(F)ccc4C4CCC4)CC3)no2)n1
51 | < 20 nM | O=C(O)Cn1nnc(-c2cc(N3CCC(C(=O)c4cc(F)ccc4C4CC4)CC3)no2)n1
52 | < 20 nM | O=C(O)Cn1nnc(-c2cc(N3CCC(C(=O)c4cc(Br)ccc4Br)CC3)no2)n1
53 | < 20 nM | CCc1ccc(Cl)cc1C(=O)C1CCN(c2cc(-c3nnn(CC(=O)O)n3)on2)CC1
54 | < 20 nM | O=C(O)Cn1nnc(-c2cc(N3CCC(C(=O)c4cc(Cl)ccc4Br)CC3)no2)n1
55 | < 20 nM | O=C(O)Cn1nnc(-c2cc(N3CCC(C(=O)c4cc(F)ccc4Br)CC3)no2)n1

Source: patent US20110301143A1, “HETEROCYCLIC DERIVATIVES AS INHIBITORS OF STEAROYL-COENZYME A DELTA-9 DESATURASE” (priority 2009, published 2011)
